Assay results: ChEMBL document CHEMBL6121030, “Asymmetric Synthesis, Structure Determination, and Biologic Evaluation of Isomers of TLAM as PFK1 Inhibitors” (ACS Med Chem Lett, 2025); call rule not given here

Test system: HeLa
Assay: Effect on mitochondrial respiration in human HeLa cells assessed as increase in OCR/ECAR ratio incubated for 24 hrs by XFe96 extracellular flux analyzer assay
Assay type: functional, cell-based

Row | Compound | Activity
1 | O=C(O)[C@H]1C2C=CC(C2)[C@H]1C(=O)N1CCc2c([nH]c3ccccc23)[C@H]1C(F)(F)F (stereo partly specified) | Active; Significantly Increased

Test system: not listed separately
Assay: Inhibition of recombinant PFK1 (unknown origin) extracted from baculovirus-infected Sf9 cells incubated for 45 min by ADP-Glo kinase assay
Set-up: species or system Homo sapiens

Row | Compound | IC50
2 | O=C(O)[C@H]1C2C=CC(C2)[C@H]1C(=O)N1CCc2c([nH]c3ccccc23)[C@@H]1C(F)(F)F (stereo partly specified) | 25 µM
3 | O=C(O)[C@@H]1C2C=CC(C2)[C@@H]1C(=O)N1CCc2c([nH]c3ccccc23)[C@@H]1C(F)(F)F (stereo partly specified) | 4.7 µM
4 | O=C(O)[C@@H]1C2C=CC(C2)[C@@H]1C(=O)N1CCc2c([nH]c3ccccc23)[C@H]1C(F)(F)F (stereo partly specified) | > 100 µM

Compounds with a lower IC50, results first:

Row | IC50 | Compound
5 | 2.7 µM | O=C(O)C1C2C=CC(C2)C1C(=O)N1CCc2c([nH]c3ccccc23)C1C(F)(F)F (stereo unspecified)
6 | 2.1 µM | O=C(O)[C@H]1C2C=CC(C2)[C@H]1C(=O)N1CCc2c([nH]c3ccccc23)[C@H]1C(F)(F)F (stereo partly specified)
